Measured values from PubChem BioAssay AID1259420 (Broad Institute, 2018).
Where “and” joins values, the source holds several entries; their conditions need not be identical. Equal values may be shown once. Records with an inconclusive call do not appear. Calls of active or inactive are those of the source. How the calls were made is not given here.

These molecules were tested on Toxoplasma gondii growth in host cells, no IFN-gamma (assay: T. gondii intracellular growth, IFN-gamma absent, dose response, cell-based (AID 1259420);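 further: host cells were HeLa; final incubation lasted 72 hours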).

| Compound | AC50 |
| --- | --- |
| COc1cc(N2CCO[C@H]3[C@@H](Oc4ncccc4F)CC[C@H]32)ncn1 | 6.3 µM |
| N#Cc1cccc(-c2ccc3c(c2)[C@@H]2[C@@H](CCN2S(=O)(=O)c2ccc(F)cc2)[C@@H](CO)N3)c1 | 14.5 µM |
| CN1c2ccc(-c3ccccc3)cc2[C@H]2[C@H](CCN2C(=O)CC2CC2)[C@@H]1CO | 25.4 µM |
| O=C(Nc1ccc2c(c1)OCO2)N1C[C@@H]2N[C@H](C1)C2c1ccc(C=Cc2ccccc2)cc1 (stereo partly drawn) | 11.6 µM and 8.75 µM |
| CCc1ccccc1S(=O)(=O)N1CCc2nc(-c3ccc(OC)cc3)sc2C1 | 4.35 µM |
| Cc1ccccc1-c1ccc(C2[C@@H]3CN(C(=O)c4ccc(F)cc4)C[C@H]2N3)cc1 (stereo partly drawn) | > 42 µM (inactive) |
| Cc1ccc(C)c(S(=O)(=O)N2CCC3(CC2)c2ncc(-c4cccc(F)c4)n2CCN3C)c1 | > 20 µM (inactive) |
| N#Cc1ccc(-c2ccc3c(c2)[C@H]2[C@H](CCN2C(=O)C2CCCCC2)[C@H](CO)N3)cc1 | 16.9 µM |
| CS(=O)(=O)NCc1cnc2n1CCN(Cc1cccs1)CC2 | 25.6 µM |
| COCC#Cc1ccc([C@@H]2[C@H]3CN(C(=O)C4CCCCC4)CC(=O)N3[C@H]2CO)cc1 | > 39 µM (inactive) |
| Cc1ccc(Nc2nc(N)nc(CN3CCc4ccccc4C3)n2)cc1 | > 10 µM (inactive) |
| CCc1cc(C(=O)Nc2ccc(C)cc2-c2cc(C)[nH]n2)c2c(C)noc2n1 | 18.2 µM |
| CC(C)(C)OC(=O)Nc1cc(-c2cn[nH]c2C2CCCN(C(=O)OC(C)(C)C)C2)ccn1 (stereo not drawn) | > 20 µM (inactive) |
| CN(C)C(=O)c1ccc(-c2ccc([C@H]3[C@@H](CO)N4C(=O)CN(C(=O)CC5CC5)C[C@@H]34)cc2)cc1 | > 39 µM (inactive) |
| CC(=O)N(C)C1(c2ccccc2)CCN(CCC[C@]2(c3ccc(Cl)c(Cl)c3)CCCN(C(=O)c3ccccc3)C2)CC1 | 16.7 µM |
| CN1CCN(C(=O)c2nn(C)c3c2CCN(S(C)(=O)=O)C3)CC1 | > 39 µM (inactive) |
| N#C[C@H]1[C@@H](c2ccc(-c3cccc(F)c3)cc2)[C@@H](CO)N1C(=O)NC1CCCC1 | > 39 µM (inactive) |
| N#Cc1ccc(-c2ccc([C@H]3[C@@H](CO)N4C(=O)CNC[C@@H]34)cc2)cc1 | > 39 µM (inactive) |
| O=C(Nc1ccc(F)cc1)N1CC(=O)N2[C@H](C1)[C@H](c1ccc(-c3cccc(F)c3)cc1)[C@@H]2CO | 15 µM |
| N#Cc1cccc(-c2ccc3c(c2)[C@H]2[C@H](CCN2C(=O)c2ccccc2F)[C@@H](CO)N3)c1 | 15.1 µM |
| CS(=O)(=O)N1CC(=O)N2[C@@H](CO)[C@H](c3ccc(C#Cc4ccc(F)cc4)cc3)[C@@H]2C1 | 28 µM |

| Compound | AC50 |
| --- | --- |
| CN(Cc1ccccn1)C(=O)C1=NOC2(CCN(S(=O)(=O)c3ccc(F)cc3)C2)C1 (stereo not drawn) | > 39 µM (inactive) |
| O=C(Nc1ccc(Cl)cc1)N1[C@@H]2CNC[C@H]1C2c1ccc(-c2ccccc2)cc1 (stereo partly drawn) | 6.4 µM |
| Cc1ccccc1-c1ccc(C2[C@H]3CNC[C@@H]2N3Cc2ccc3c(c2)OCO3)cc1 (stereo partly drawn) | > 20 µM (inactive) |
| CC(C)C#Cc1ccc([C@H]2[C@@H](C#N)N(C(=O)c3cccc(F)c3)[C@H]2CO)cc1 | 26.4 µM |
| O=C(Nc1cccc(F)c1)C1CC12CCN(S(=O)(=O)c1ccccc1)C2 (stereo not drawn) | 35.5 µM |
| COc1ccc(NC(=O)N2CCCCN3[C@H](CO)[C@@H](c4ccc(-c5ccccc5F)cc4)[C@@H]3C2)cc1 | 19.1 µM |
| C[C@@H]1CN([C@@H](C)CO)C(=O)c2cccc(NC(=O)NC3CCCCC3)c2O[C@H]1CN(C)Cc1ccc(C(F)(F)F)cc1 | > 39 µM (inactive) |
| Cc1ccc(S(=O)(=O)N2CC[C@H]3[C@@H](CO)N(C)c4ccc(-c5ccccc5F)cc4[C@H]32)cc1 | > 20 µM (inactive) |
| O=S(=O)(c1ccc(-c2ccccc2)cc1)N1C[C@@H]2N[C@H](C1)C2c1ccc(-c2ccncc2)cc1 (stereo partly drawn) | 16.1 µM |
| Cc1ccccc1CN1C[C@@H]2c3nc(N4CCCC(C)C4)ncc3CS(=O)(=O)[C@H]2C1 (stereo partly drawn) | 28.2 µM |
| Cc1ccc(S(=O)(=O)N2CC[C@@H]3[C@H]2c2cc(-c4ccccc4F)ccc2N(C)[C@H]3CO)cc1 | 20.4 µM |
| O=S(=O)(c1ccccc1)N(CC(F)(F)F)c1ccc(C(O)(C(F)(F)F)C(F)(F)F)cc1 | 14.2 µM |
| CN1c2ccc(C#Cc3cccnc3)cc2[C@@H]2[C@@H](CCN2C(=O)c2cccc(F)c2)[C@@H]1CO | 30.3 µM |
| COc1cccc(-c2ccc([C@@H]3[C@H]4CN(C(=O)c5cccnc5)CC(=O)N4[C@H]3CO)cc2)c1 | > 39 µM (inactive) |
| CCCCOc1ccc2c(=O)c(-c3cc(C(=O)OC)oc3C)c(C(F)(F)F)oc2c1C | 8.86 µM and 8.94 µM |
| CC[C@]1(O)C[C@@H]2CN(CCc3c([nH]c4ccccc34)[C@@](C(=O)OC)(c3cc4c(cc3OC)N(C)[C@H]3[C@@](O)(C(=O)OC)[C@H](OC(C)=O)[C@]5(CC)C=CCN6CC[C@]43[C@@H]65)C2)C1 | < 0.16 µM |
| Cc1ccc(S(=O)(=O)N2CC[C@@H]3[C@@H](CO)Nc4ccc(-c5cccc(C(=O)N(C)C)c5)cc4[C@@H]32)cc1 | 13.8 µM |
| O=C(c1ccc(F)cc1)N1CC(=O)N2[C@@H](CO)[C@@H](c3ccc(C#CCC4CCCC4)cc3)[C@@H]2C1 | 21.2 µM |
| COc1cccc(S(=O)(=O)N2CCCCN3[C@H](CO)[C@@H](c4ccc(C#CCC(C)C)cc4)[C@@H]3C2)c1 | 19 µM |
| Cc1ccn(CCNc2nccc(-c3c(C)nn(C)c3C)n2)n1 | > 39 µM (inactive) |
| Cc1sc2ncnc(Oc3ccc(OCc4ccccc4)cc3)c2c1C | 7.16 µM and 9.76 µM |

| Compound | AC50 |
| --- | --- |
| COc1ccc(CN2CCO[C@H]3[C@H]2CC[C@H]3OCCCn2cccn2)cc1 | > 39 µM (inactive) |
| N#C[C@@H]1[C@@H](c2ccc(C3=CCCCC3)cc2)[C@@H](CO)N1S(=O)(=O)c1ccccc1 | > 39 µM (inactive) |
| Cc1sc2ncnc(NCC3CCN(c4cnn(C)c(=O)c4)C3)c2c1C (stereo not drawn) | 29.6 µM |
| CC(C)NC(=O)N1CC[C@@H]2[C@H]1c1cc(-c3ccc(F)cc3)ccc1N(C)[C@@H]2CO | > 20 µM (inactive) |
| O=C(Cc1ccccc1)N1CC(=O)N2[C@H](C1)[C@@H](c1ccc(-c3ccc(F)cc3)cc1)[C@@H]2CO | 24.7 µM |
| CCc1cnc(N2[C@@H](C#N)[C@@H](c3ccc(C4=CCCCC4)cc3)[C@@H]2CO)s1 | > 20 µM (inactive) |
| O=C(CC1CC1)N1CC[C@@H]2[C@H]1c1cc(-c3ccc(F)cc3)ccc1N[C@@H]2CO | 16.3 µM |
| CCOc1ccc(N(Cc2nc(-c3ccc(OC)cc3)oc2C)S(=O)(=O)c2ccccc2)cc1 | 7.28 µM |
| CCCCCCC(C)(C)c1ccc(C2CC(O)CCC2CCCO)c(O)c1 (stereo not drawn) | 17.9 µM |
| c1csc(-c2cc(NC3CCNCC3)nc3[nH]ccc23)n1 | 37 µM |
| CN(C)C(=O)COCC1CN(S(C)(=O)=O)Cc2nnn(C)c21 (stereo not drawn) | > 39 µM (inactive) |
| O=C(NC1CCCCC1)N1C[C@@H]2N[C@H](C1)C2c1ccc(-c2ccc(F)cc2)cc1 (stereo partly drawn) | 23 µM |
| Cc1cccc(-c2ccc([C@H]3[C@@H](CO)N4CCCCN(S(=O)(=O)c5ccccc5F)C[C@H]34)cc2)c1 | 16.4 µM and 19.5 µM |
| COCCN1C(=O)CCC12CCC(NC(=O)c1cc(C)on1)CC2 (stereo not drawn) | > 39 µM (inactive) |
| COc1cccc(S(=O)(=O)N2CCCCN3[C@H](C2)[C@H](c2ccc(C#CCC(C)C)cc2)[C@@H]3CO)c1 | 11.9 µM and 15.5 µM |
| N#Cc1cccc(-c2ccc(C3[C@@H]4CN(C(=O)c5ccc6c(c5)OCO6)C[C@H]3N4)cc2)c1 (stereo partly drawn) | > 39 µM (inactive) |
| CN1C(=O)CC2C1CCN2S(=O)(=O)Cc1ccccc1 (stereo not drawn) | > 39 µM (inactive) |
| COc1cccc(NC(=O)N2CC(=O)N3[C@H](C2)[C@H](c2ccc(C#CCC4CCCC4)cc2)[C@@H]3CO)c1 | 16.9 µM |
| CC(C)NC(=O)N1CC(=O)N2[C@H](C1)[C@@H](c1ccc(/C=C/c3ccccc3)cc1)[C@@H]2CO | 17.9 µM |
| CCCN1CCC[C@@H]2Cc3[nH]ncc3C[C@H]21 | > 39 µM (inactive) |
| N#Cc1cccc(-c2ccc3c(c2)[C@H]2[C@H](CCN2Cc2ccc4c(c2)OCO4)[C@@H](CO)N3)c1 | 15 µM |

| Compound | AC50 |
| --- | --- |
| O=C(C[C@@H]1CC[C@H]2[C@@H](COC[C@@H](O)CN2Cc2cc(F)ccc2F)O1)NCc1ccc(Oc2ccccc2)cc1 | 16.9 µM |
| O=C(NC1CCCC1)[C@H]1[C@H](CO)[C@H]2Cn3c(ccc(C4=CCCCC4)c3=O)[C@@H]1N2CC1CC1 | > 39 µM (inactive) |
| COc1cccc(NC(=O)N2CC(=O)N3[C@H](CO)[C@@H](c4ccc(C#CCC5CCCC5)cc4)[C@@H]3C2)c1 | 14.4 µM and 13.4 µM |
| N#Cc1cccc(-c2ccc(C3[C@@H]4CN(Cc5ccccc5)C[C@H]3N4)cc2)c1 (stereo partly drawn) | 13.1 µM |
| Cc1ccccc1-c1ccc([C@H]2[C@@H](CO)N3CCCCN(S(=O)(=O)Cc4ccccc4)C[C@H]23)cc1 | 22.7 µM |
| N#Cc1ccc(-c2ccc(C3[C@@H]4CN(C(=O)C5CCCCC5)C[C@H]3N4)cc2)cc1 (stereo partly drawn) | 16.7 µM |
| Cc1cccc(-c2ccc(C3[C@@H]4CN(Cc5cccc(F)c5)C[C@H]3N4)cc2)c1 (stereo partly drawn) | 19.4 µM |
| CC(C)CC#Cc1ccc([C@@H]2[C@@H](CO)N3C(=O)CN(C(=O)Nc4cc(F)ccc4F)C[C@@H]23)cc1 | 17.1 µM |
| Cc1cc(C)cc(S(=O)(=O)N2CCC3(CC2)NCCN=C3NCc2ccc(C(F)(F)F)cc2)c1 | 18.7 µM |
| O=C(c1ccc(F)cc1)N1CC(=O)N2[C@H](CO)[C@H](c3ccc(C#CCC4CCCC4)cc3)[C@@H]2C1 | 14.7 µM |
| O=C(C1CCC1)N1CC[C@H]2CN(Cc3cccc(Cl)c3)S(=O)(=O)[C@@H]2CC1 | > 39 µM (inactive) |
| C=CCNc1nnc(Cl)c2ccccc12 | 17.8 µM |
| OC[C@H]1O[C@@H](n2cnc3c(NC4CCCC4)nc(Cl)nc32)[C@H](O)[C@@H]1O | > 39 µM (inactive) |
| O=C(Cc1ccccc1)N1CC(=O)N2[C@H](CO)[C@@H](c3ccc(-c4ccc(F)cc4)cc3)[C@@H]2C1 | 19.2 µM |
| O=C(C[C@@H]1CC[C@@H]2[C@H](COC[C@@H](O)CN2Cc2ccc(Oc3ccccc3)cc2)O1)N1CCN(c2ccccc2)CC1 | 16.5 µM |
| O=S(=O)(c1ccccc1F)N1CC[C@H]2[C@H](CO)Nc3ccc(C4=CCCCC4)cc3[C@H]21 | 12.4 µM |
| CC(C)(C)c1ccc(S(=O)(=O)N2CCC[C@@H]2C(=O)NCCc2csc(-c3ccccc3)n2)cc1 | > 39 µM (inactive) |
| C[C@H]1CN([C@@H](C)CO)C(=O)c2cccc(NC(=O)c3ccc(-c4nccs4)cc3)c2O[C@@H]1CN(C)C(=O)Nc1ccc(C(F)(F)F)cc1 | > 42 µM (inactive) |
| COc1cc([C@@H]2c3cc4c(cc3C(OC3O[C@@H]5COC(C)O[C@H]5[C@H](O)[C@H]3O)C3COC(=O)[C@@H]32)OCO4)cc(OC)c1O (stereo partly drawn) | 23.5 µM |
| Cc1cc(Nc2cc(N3CCN(C)CC3)nc(Sc3ccc(NC(=O)C4CC4)cc3)n2)n[nH]1 | 18.7 µM |
